Results reported in patent publication US4740517A, “Antidiabetic spiro-3-heteroazolidines” (Sanwa Kagaku Kenyusho Co., Ltd., priority 1985, dated 1988).

Assays:
[1] = system: polyol increase in sciatic nerve of galactosemic rats; experiment: reduction or inhibition of polyol (galactitol) increase in sciatic nerve of galactosemic rats; type: in vivo, rat; settings: for Percent Inhibition (%) as compared to galactitol increase of the control animals: rats, 30% galactose diet, oral 10 mg/kg once a day for 8 days, sciatic nerve removed on 9th day
Experimental: Some spiro-3-heteroazolidine compounds according to the invention were tested to evaluate their ability on reduction or inhibition of polyol increase in sciatic nerve of galactosemic rats. To the rats, 30% galactose diet was fed and said compounds were orally administered at a dose of 10 mg/kg once a day for a period of 8 days. Control animals were received the galactose diet and were administered no such compound. One day after final administration (on 9th day from the first administration), sciatic nerves were removed for galactitol determination.

[2] = biological target: T1, aldose reductase enzyme (Rattus norvegicus, UniProt P07943); experiment: inhibition of aldose reductase enzyme activity using water-soluble extracts of rat lenses (Kador and Sharpless procedure); type: biochemical; settings: for inhibition at 10 µM: 10^-5 M; for inhibition at 1 µM: 10^-6 M; for inhibition at 0.1 µM: 10^-7 M; for IC50: read-out: IC50 (concentration of inhibitor which gives 50% inhibition)
T1 construct: Using water-soluble extracts of rat lenses; from tissue; host or cells: rat lens, water-soluble extract
Experimental: Using water-soluble extracts of rat lenses, the inhibitions of these compounds were determined.

[3] = read-out: Percent Inhibition (%) of aldose reductase enzyme activity

| SMILES | inhibition at 10 µM [2, 3] [%] | inhibition at 1 µM [2, 3] [%] | inhibition at 0.1 µM [2, 3] [%] | IC50 [2] [nM] | inhibition at 0.01 µM ([2]; 10^-8 M, read-out: Percent Inhibition (%) of aldose reductase enzyme activity) [%] | ability to reduce or inhibit polyol increase in sciatic nerve of galactosemic rats, potency of diastereoisomers ([1]; major versus minor diastereoisomer of Example 1) | Percent Inhibition (%) as compared to galactitol increase of the control animals [1] [%] | inhibition of polyol accumulation in sciatic nerve (in words) [1] |
| --- | --- | --- | --- | --- | --- | --- | --- | --- |
| O=C1NC(=O)C2(CC(C(=O)O)Oc3ccc(F)cc32)N1 (stereo not drawn) [Example 1, 6-Fluoro-2,3-dihydro-2',5'-dioxo-spiro[4H-1-benzopyran-4,4'-imidazolidine]-2-carboxylic acid] | 77 | 47 | 9 | 6000 |  | greater than that of the minor diastereoisomer | 36 |  |
| NC(=O)C1CC2(NC(=O)NC2=O)c2cc(F)ccc2O1 (stereo not drawn) [Example 2, 6-Fluoro-2,3-dihydro-2',5'-dioxo-spiro[4H-1-benzopyran-4,4'-imidazolidine]-2-carboxamide] | 93 | 85 | 15 | 400 |  |  | 85 | excellent |
| CN(C)C(=O)C1CC2(NC(=O)NC2=O)c2cc(F)ccc2O1 (stereo not drawn) [Example 5, 6-Fluoro-2,3-dihydro-N,N-dimethyl-2',5'-dioxo-spiro[4H-1-benzopyran-4,4'-imidazolidine]-2-carboxamide] | 61 | 29 | 10 | 5000 |  |  | 70 | excellent |
| O=C1NC(=O)C2(CC(CO)Oc3ccc(F)cc32)N1 (stereo not drawn) [Example 12, 6-Fluoro-2,3-dihydro-2-hydroxymethyl-spiro[4H-1-benzopyran-4,4'-imidazolidine]-2',5'-dione] | 85 | 28 | 13 | 4000 |  |  | 40 |  |

More lines, main results first:

| inhibition at 10 µM [2, 3] [%] | inhibition at 1 µM [2, 3] [%] | inhibition at 0.1 µM [2, 3] [%] | IC50 [2] [nM] | inhibition at 0.01 µM ([2]; 10^-8 M, read-out: Percent Inhibition (%) of aldose reductase enzyme activity) [%] | SMILES | ability to reduce or inhibit polyol increase in sciatic nerve of galactosemic rats, potency of diastereoisomers ([1]; major versus minor diastereoisomer of Example 1) | Percent Inhibition (%) as compared to galactitol increase of the control animals [1] [%] | inhibition of polyol accumulation in sciatic nerve (in words) [1] |
| --- | --- | --- | --- | --- | --- | --- | --- | --- |
| 71 | 78 | 26 | 500 |  | CNC(=O)C1CC2(NC(=O)NC2=O)c2cc(F)ccc2O1 (stereo not drawn) [Example 3, 6-Fluoro-2,3-dihydro-N-methyl-2',5'-dioxo-spiro[4H-1-benzopyran-4,4'-imidazolidine]-2-carboxamide] |  | 31 |  |
| 81 | 81 | 65 | 70 | 14 | COc1ccc(NC(=O)C2CC3(NC(=O)NC3=O)c3cc(F)ccc3O2)cc1 (stereo not drawn) [Example 8, 6-Fluoro-2,3-dihydro-N-(4-methoxyphenyl)-2',5'-dioxo-spiro[4H-1-benzopyran-4,4'-imidazolidine]-2-carboxamide] |  | 26 |  |
| 90 | 51 | 3 | 1000 |  | O=C1NC(=O)C2(CC(CCl)Oc3ccc(F)cc32)N1 (stereo not drawn) [Example 13, 2-Chloromethyl-6-fluoro-2,3-dihydro-spiro[4H-1-benzopyran-4,4'-imidazolidine]-2',5'-dione] |  | 88 |  |
